Laboratory results: patent US20260219274A1, “POLYOL SWEETNERS AND CARDIOVASCULAR AND THROMBOTIC EVENT RISK” (THE CLEVELAND CLINIC FOUNDATION, priority 2023, published 2026)

What was measured:
[1] = cited from earlier work
C57BL/6J mice = test: Carotid artery FeCl3 injury thrombosis model; assay type: in vivo; settings: for rate of clot / thrombus formation / time to cessation of blood flow following arterial injury: 25 mg/kg i.p. vs vehicle (saline)
Procedure: Mice were used to causally test whether elevation in xylitol plasma levels results in enhancement in thrombosis potential. All mice were C57BL/6J and 12-14 weeks of age. All animal studies were approved by the Institutional Animal Care and Use Committee at the Cleveland Clinic (IRB 2019-2251).
The FeCl3-induced carotid artery injury model was performed using intravital fluorescence microscopy with continuous image capture monitoring, as previously described.^44 Time to cessation of blood flow through thrombus formation for all experiments was determined by visual inspection by two independent investigators.
The FeCl3-induced carotid artery injury model was performed as previously described.^9 BL/6J mice, both male and female, 12-14 weeks of age, were i.p. injected with vehicle (saline) or xylitol (25 mg/kg). The animals were anesthetized with 100 mg/kg ketamine+10 mg/kg xylazine and rhodamine 6G (100 μL; 0.5 mg/mL, catalogue #252433, Sigma, St. Louis, MO, USA) was injected into the right jugular vein for platelet labeling. The left carotid artery was then exposed, and an injury induced using a 1 mm^2 Whatman filter paper containing 10% FeCl3 (Catalogue #157740, Sigma, St. Louis, MO, USA) for 1 min. Thrombus formation in real time was monitored using intravital fluorescence microscopy equipped with video recording. Time to cessation of blood flow through thrombus formation for all experiments was determined by visual inspection by two independent investigators and animals were immediately euthanized after data acquisition.
The common carotid artery FeCl3 induced injury model was performed as previously described^54. 12-14 weeks old BL/6J mice were injected with vehicle (normal saline), erythritol (25 mg/kg) or 1,5-AHG (25 mg/kg) and anesthetized with 100 mg/kg ketamine+10 mg/kg xylazine. Rhodamine 6G (100 μL; 0.5 mg/mL, catalogue #252433, Sigma, St. Louis, MO, USA) was injected into the right jugular vein to label platelets. The left carotid artery was then injured with a Whatman filter paper of 1 mm^2 size containing 10% FeCl3 (Catalogue #157740, Sigma, St. Louis, MO, USA) for 1 min. Intravital fluorescence microscopy equipped with video recording was used to monitor thrombus formation in real time. Time to cessation of blood flow through clot formation for all studies was determined by visual inspection of captured video by two independent investigators in real time. Data for the in vivo thrombosis were collected by Streampix 7—Multiple Camera DVR Software (NorPix Inc, Montreal, Canada). Animals were immediately euthanized after data acquisition.

washed human platelets = test: Intracellular calcium measurements in Fura 2-filled washed platelets; assay type: cell-based; settings: for thrombin-evoked intracellular Ca2+ release: submaximal (0.02 U) thrombin, pre-incubation with the polyol
Procedure: Measurement of intracellular calcium release in washed platelets was performed as previously described.^41 Further details are provided in supplemental methods.
To isolate washed platelets for intracellular Ca^2+ measurements, PRP was prepared as described above. Next, 100 nM prostaglandin E1 (PGE-1, Catalogue #P5512, Sigma, St. Louis, MO, USA) was added to the PRP and centrifuged at 500×g for 20 min at 22° C. as previously described.^6 After a gentle wash in a modified phosphate buffer saline (NaCl (137 mM), KCl (2.7 mM), Na2HPO4 (12 mM), MgCl2 (1 mM), and glucose (5.5 mM), pH 7.4) with PGE-1 (100 nM), the platelet pellet was spun again at 500×g for 20 min. The platelet pellet was re-suspended in modified Hank's buffered salt solution (HBSS-BSA-glucose; NaCl (0.137 M), KCl (5.4 mM), Na2HPO4 (0.25 mM KH2PO4 (0.44 mM), CaCl2 (1.3 mM), MgSO4 (1.0 mM), NaHCO3 (4.2 mM), glucose (5 mM) and BSA (0.1%)) with 100 nM PGE-1 and incubated with Fura 2-AM ([…]) at 22° C. After 30 min of incubation, an additional centrifugation at 500×g for 30 min was performed to remove excess Fura 2-AM. After resuspension in modified Hank's buffered salt solution the platelet pellet was incubated with xylitol at the indicated concentrations or vehicle for 30 min at 22° C. Intracellular Ca^2+ release was initiated by submaximal concentration of thrombin (0.02 U/mL) and changes in intracellular Ca^2+ monitored via Fura 2-AM fluorescence using 340/380 nm dual-wavelength excitation and an emission of 510 nm.
Washed platelets for intracellular Ca^2+ measurements were prepared by adding 100 nM prostaglandin E1 (PGE-1, Catalogue #P5512, Sigma, St. Louis, MO, USA) to PRP and centrifugation at 500×g, 20 min at 22° C. as previously described^26,51. […] Intra-cellular calcium release was induced by submaximal concentration of thrombin (0.02 U/mL) and changes monitored via Fura 2-AM fluorescence using 340/380 nm dual-wavelength excitation and an emission of 510 nm.

| Compound | well tolerated daily dose ([1]; digestive tolerance) | effect on blood sugar / insulin ([1]; in vivo) | metabolism and excretion upon ingestion ([1]; in vivo) | rate of clot / thrombus formation (C57BL/6J mice) | time to cessation of blood flow following arterial injury (C57BL/6J mice) | thrombin-evoked intracellular Ca2+ release (washed human platelets) | erythritol concentration eliciting significant increase in stimulus-dependent (thrombin) intracellular calcium (washed human platelets; threshold, FIG. 17) [µM] | plasma xylitol level at which heightened thrombosis potential was observed (C57BL/6J mice; animal model of thrombosis (FIG. 4B)) [µM] |
| --- | --- | --- | --- | --- | --- | --- | --- | --- |
| OC[C@@H](O)[C@@H](O)CO [erythritol] | up to 1 g/kg | no short-term insulinemic or glycemic effects | poorly metabolized and mostly excreted in the urine | marked enhancement | significant reduction | enhanced | 45 | – |
| OC[C@@H](O)[C@H](O)[C@@H](O)CO [xylitol] | – | negligible impact | – | marked increase | significant reduction | dose-dependently enhanced | – | 19 |
